Experimental data published in US11220674B2, “Stabilization of dehydrogenases with stable coenzymes” (ROCHE DIABETES CARE, INC., priority 2009, dated 2022).

Key:
[1] = molecular target: glucose dehydrogenase/NAD system (Bacillus subtilis, UniProt P12310); assay: Photometric glucose determination with GlucDH/NAD, mediator and 2,18-phosphomolybdic acid (reflectance); conditions: for reflectance of the measured sample: glucose concentration in the region of 800 mg/dl; for reflectance versus glucose concentration: test elements stored at room temperature for 11 weeks, GlucDH, NAD, mediator, 2,18-phosphomolybdic acid
Protocol: To determine glucose, various test systems which included in each case glucose dehydrogenase, NAD, a mediator and, where appropriate, an optical indicator were measured photometrically and electrochemically.
For photometric measurements, initially four test elements which had in each case been stored at room temperature for 11 weeks and comprised 2,18-phosphomolybdic acid, besides glucose dehydrogenase, NAD and a mediator, were investigated with various glucose concentrations.

[2] = molecular target: T1, glucose dehydrogenase (GlucDH) (Bacillus subtilis, UniProt P12310); assay: Stability of GlucDH in liquid phase at 50° C. with coenzyme (residual activity); format: biochemical
Protocol: FIG. 11A is a depiction of the stability of glucose dehydrogenase in the presence of NAD and cNAD, respectively, in liquid phase at 50° C. over a period of 4 days Test conditions: GlucDH 10 mg/ml; NAD and cNAD, respectively, 12 mg/ml; buffer: 0.1 M Tris, 1.2 M NaCl, pH 8.5; temperature 50° C.
FIG. 11B is a depiction of the stability of glucose dehydrogenase in the presence of NAD and cNAD, respectively, in liquid phase at 50° C. over a period of 14 days at the same test conditions as FIG. 11A.
After 95 hours at 50° C., the residual activity of glucose dehydrogenase in the presence of the native coenzyme NAD is ≈5%, whereas the residual activity of GlucDH in the presence of the artificial coenzyme cNAD is 75% (FIG. 11A). After storage at 50° C. for 336 hours, the residual activity of the enzyme stabilized with NAD is now only about 1%; the residual activity of the enzyme stored in the presence of cNAD is observed to be still about 70%.

[3] = molecular target: glucose dehydrogenase (GlucDH), wild-type (Bacillus subtilis, UniProt P12310); assay: Residual activity of GlucDH after dry storage on film with coenzyme; format: biochemical
Protocol: (§1) Carba-NAD (FIG. 1A) or NAD were added to the glucose-specific GlucDH. These formulations were in each case applied to Pokalon film (Lonza) and, after drying, stored under warm and moist conditions (32° C., 85% relative humidity). The reaction kinetics and the function plot were subsequently determined at regular intervals. In parallel, at each of the times of measurement a cNAD/NAD analysis and a determination of the residual activity of the enzyme were carried out.
The result of the determination of residual activity of the active GlucDH enzyme after 5 weeks at 32° C. and 85% relative humidity (FIG. 7A) is completely surprising. […] After 24 weeks at 32° C. and 85% relative humidity (FIG. 7B), the residual activity of the enzyme on stabilization with cNAD is still about 25%.

[4] = molecular target: T2, alcohol dehydrogenase from yeast (Saccharomyces cerevisiae, UniProt P00330); assay: Stability of alcohol dehydrogenase in liquid phase at 35° C. with coenzyme (residual activity); format: biochemical; conditions: after 65 hours at 35° C.
T2 sequence (P00330 1-348): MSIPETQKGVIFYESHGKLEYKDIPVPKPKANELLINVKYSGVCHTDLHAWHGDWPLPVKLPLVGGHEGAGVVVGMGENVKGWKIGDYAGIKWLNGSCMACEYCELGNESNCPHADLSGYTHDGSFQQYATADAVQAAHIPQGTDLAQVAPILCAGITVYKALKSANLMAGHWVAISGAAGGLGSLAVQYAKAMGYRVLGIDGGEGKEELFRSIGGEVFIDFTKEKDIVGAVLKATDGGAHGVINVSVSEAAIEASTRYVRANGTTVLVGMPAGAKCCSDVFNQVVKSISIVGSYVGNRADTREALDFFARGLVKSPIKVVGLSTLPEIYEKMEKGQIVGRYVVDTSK
Protocol: FIG. 14 is a depiction of the stability of alcohol dehydrogenase from yeast in the presence of NAD and cNAD, respectively, in liquid phase at 35° C. over a period of 65 hours. Test conditions: ADH 5 mg/ml; NAD and cNAD, respectively, 50 mg/ml; buffer: 75 mM Na4P207, glycine, pH 9.0; temperature 35° C.
(§2) cNAD or NAD were added to an alcohol detection solution. These mixtures were stored at 35° C. The stability of the enzyme was then checked at regular intervals, and the residual activity of the enzyme was determined.
After 65 hours at 35° C., the residual activity of alcohol dehydrogenase in the presence of the native coenzyme NAD is about 6%, whereas the residual activity of the enzyme in the presence of the artificial coenzyme cNAD is still about 60%.

glucose dehydrogenase = glucose dehydrogenase (Bacillus subtilis, UniProt P12310); assay: Electrochemical glucose determination with GlucDH, coenzyme and mediator (current); conditions: 25 mM coenzyme; mediator 1-(3-carboxypropoxy)-5-ethylphenazinium trifluoromethanesulfonate
Protocol: FIG. 20 is a depiction of the current measured as a function of the glucose concentration in the electrochemical determination of glucose using glucose dehydrogenase in the presence of NAD and cNAD, respectively. Test conditions: 25 mM NAD and cNAD, respectively; 2.5 seconds delay; 5 seconds measurement time.
As alternative to photometry it is also possible to employ an electrochemical measurement for the purpose of determining analytes.

[5] = molecular target: GlucDH_E170K_K252L (GlucDH-Mut2) (Bacillus subtilis, UniProt P12310, A229V/A236S/E170K/Q252L); assay: Residual activity of GlucDH mutant after dry storage with coenzyme; format: biochemical; conditions: storage at 32° C. and 85% relative humidity for 24 weeks
Protocol: (§3) FIG. 8 is a depiction of the GlucDH activity after storage of glucose dehydrogenase (GlucDH wt), the double mutant GlucDH_E96G_EI70K (GlucDH Mut1) and the double mutant GlucDH_E170K_K252L (GlucDH Mut2) in the presence of NAD and cNAD, respectively, at 32° C. and 83% relative humidity over a period of 25 weeks.
as §1
(§4) If a mutant is used instead of the wild-type enzyme (from Bacillus subtilis), it is possible to increase the residual GlucDH activity even further. […]

[6] = molecular target: GlucDH_E96G_E170K (GlucDH-Mut1) (Bacillus subtilis, UniProt P12310, A229V/A236S/E170K/E96G/Q252K); assay: as above; format: biochemical; conditions: storage at 32° C. and 85% relative humidity for 24 weeks
Protocol: as §3, §1, §4

[7] = Residual content of coenzyme in glucose detection reagent after dry storage on film (cNAD/NAD analysis); format: physicochemical; conditions: storage at 32° C. and 85% relative humidity for 24 weeks
Protocol: as §1
The relation between structure of the coenzyme and its stability over a predetermined period is evident from FIG. 6. According to this, the residual content of cNAD in a glucose detection reagent after storage (at 32° C. and 85% relative humidity) for 24 weeks is still about 80% of the initial level, whereas the content of NAD in a glucose detection reagent stabilized with NAD declines after only 5 weeks to about 35% of the initial level and, by extrapolation, is reduced to zero after about 17 weeks.

[8] = molecular target: T1, glucose dehydrogenase (GlucDH); assay: Reaction kinetics, function plot and dry blank value of GlucDH test film after storage; format: biochemical
Protocol: as §1
However, a distinct difference in the kinetics plots is evident after 5 weeks.
There is also a distinct difference in the blank values (dry blank value before application of a blood sample), as is evident from FIG. 3.
The differing stability of glucose dehydrogenase in the presence of NAD and cNAD, respectively, is also evident from comparison of FIGS. 4 and 5.

[9] = molecular target: T2, alcohol dehydrogenase from yeast; assay: SDS gel electrophoresis of alcohol dehydrogenase after storage with coenzyme
Protocol: Test conditions: MW, 10 220 kDa markers; 1: ADH, 65 hours at 6° C.; 2: ADH/cNAD, 65 hours at 6° C.; 3: ADH/NAD, 65 hours at 6° C.; 4: ADH, 65 hours at 35° C.; 5: ADH/cNAD, 65 hours at 35° C.; 6: ADH/NAD, 65 hours at 35° C.
Test conditions: MW, 10 220 kDa markers; 1: ADH/NAD, 0 days; 2: ADH/NAD, 1 day; 3: ADH/NAD, 2 days; 4: ADH/NAD, 3 days; 5: ADH/NAD, 5 days; 6: ADH/cNAD, 0 days; 7: ADH/cNAD, 1 day; 8: ADH/cNAD, 2 days; 9: ADH/cNAD, 3 days; 10: ADH/cNAD, 6 days.
as §2

[10] = molecular target: T1, glucose dehydrogenase (GlucDH); assay: SDS gel electrophoresis of GlucDH after storage with coenzyme
Protocol: Test conditions: MW, 10 220 kDa markers; 1: GlucDH/NAD, 5 weeks at 6° C.; 2: GlucDH/NAD, 5 weeks at 32° C./85% relative humidity; 3: GlucDH/cNAD, 5 weeks at 6° C.; 4: GlucDH/cNAD, 5 weeks at 32° C./85% relative humidity.
Test conditions: MW, 10 220 kDa markers; 1: GlucDH 8.5 mg/ml, NAD, 0 hours; 2: GlucDH 8.5 mg/ml, NAD, 22 hours; 3: GlucDH 8.5 mg/ml, NAD, 96 hours; 4: GlucDH 8.5 mg/ml, NAD, 118 hours; 5: GlucDH 8.5 mg/ml, NAD, 140 hours; 6: GlucDH 8.5 mg/ml, NAD, 188 hours; 7: GlucDH 8.5 mg/ml, NAD, 476 hours; 8: GlucDH 8.5 mg/ml, cNAD, 0 hours; 9: GlucDH 8.5 mg/ml, cNAD, 188 hours; 10: GlucDH 8.5 mg/ml, cNAD, 476 hours.

[11] = storage at 50° C. for 336 hours
[12] = after 5 weeks at 32° C. and 85% relative humidity, versus samples stored in refrigerator with desiccant

| SMILES | reflectance of the measured sample [1] | reflectance versus glucose concentration [1] | residual activity of glucose dehydrogenase ([2]; after 95 hours at 50° C.) | residual activity of glucose dehydrogenase [2, 11] | residual activity of GlucDH enzyme [3, 12] [%] | residual activity of alcohol dehydrogenase [4] | also measured |
| --- | --- | --- | --- | --- | --- | --- | --- |
| Cl.O=Nc1ccc(N(CO)CO)cc1 [Med A, [(4-nitrosophenyl)imino]dimethanol hydrochloride] | about 20% | a fall in the reflectance was observed with increasing glucose concentration |  |  |  |  |  |
| C[n+]1cccc2c1C(=O)C(=O)c1cccnc1-2.O=S(=O)([O-])C(F)(F)F [Med F, 7-methyl-5,6-dioxo-5,6-dihydro-1,7-phenanthrolinium trifluoromethanesulfonate] |  | a fall in the reflectance was observed with increasing glucose concentration |  |  |  |  |  |
| CC[n+]1c2ccccc2nc2c(OCCCC(=O)O)cccc21.O=S(=O)([O-])C(F)(F)F [Med G, 1-(3-carboxypropoxy)-5-ethylphenazinium trifluoromethanesulfonate] | about 20% | a fall in the reflectance was observed with increasing glucose concentration |  |  |  |  |  |
| C[n+]1cccc2c1-c1ncccc1C(=O)C2=O.O=S(=O)([O-])C(F)(F)F [Med B, 1-methyl-5,6-dioxo-5,6-dihydro-1, 10-phenanthrolinium trifluoromethanesulfonate] |  | a fall in the reflectance was observed with increasing glucose concentration |  |  |  |  |  |
| NC(=O)c1ccc[n+]([C@@H]2O[C@H](COP(=O)([O-])OP(=O)(O)OC[C@H]3O[C@@H](n4cnc5c(N)ncnc54)[C@H](O)[C@@H]3O)[C@@H](O)[C@H]2O)c1 [NAD, nicotinamide adenine dinucleotide, reference compound] |  |  | ≈ 5% | about 1% | 0.5 | about 6% |  |
| NC(=O)c1ccc[n+]([C@@H]2C[C@H](COP(=O)([O-])OP(=O)(O)OC[C@H]3O[C@@H](n4cnc5c(N)ncnc54)[C@H](O)[C@@H]3O)[C@@H](O)[C@H]2O)c1 [cNAD, carba-NAD] |  |  | 75% | about 70% | 70 | about 60% | current required to reoxidize the reduced mediator versus glucose concentration (glucose dehydrogenase): linearly dependent on the glucose concentration; residual activity of GlucDH_E170K_K252L mutant [5]: about 50%; residual activity of GlucDH_E96G_E170K mutant [6]: about 70%; residual content of coenzyme in glucose detection reagent [7]: about 80 % of the initial level; function plot of GlucDH after storage ([8]; after 5 weeks at 32° C., 85% humidity): still in the bunch of previous measurements; kinetics plots of GlucDH after storage ([8]; after 5 weeks at 32° C., 85% relative humidity): remain virtually unchanged; function plot of GlucDH after storage ([8]; over 24 weeks at 32° C., 85% humidity): only slightly changed at high glucose concentrations; dry blank value (before application of blood sample) ([8]; up to 5 weeks at 32° C., 85% humidity): this does not occur; residual activity of GlucDH enzyme ([3]; after 24 weeks at 32° C. and 85% relative humidity): about 25%; alcohol dehydrogenase band in SDS gel ([9]; storage at 35° C., NAD 5 days, cNAD 6 days): distinctly less decomposition of the enzyme; alcohol dehydrogenase band in SDS gel ([9]; storage for 65 hours at 35° C. (versus 6° C.)): differ only slightly; enzyme band in SDS gel ([10]; storage at 50° C., after 476 hours): only slight change; enzyme band in SDS gel ([10]; storage for 5 weeks at 32° C. and 85% relative humidity): still identifiable as a band with the expected mobility |
